Molecular target: his6-Siah1 (aa 81-282) (Homo sapiens, UniProt Q8IUQ4)
Test: blockers of Siah-1 interaction with plectin peptide – biochemical, fluorescence polarization, rhodamine-plectin, uHTS, primary screen (AID 1817)
Details: not given

his6-Siah1 (aa 81-282), sequence (Q8IUQ4 whole entry, looked up, the tested form may be a part): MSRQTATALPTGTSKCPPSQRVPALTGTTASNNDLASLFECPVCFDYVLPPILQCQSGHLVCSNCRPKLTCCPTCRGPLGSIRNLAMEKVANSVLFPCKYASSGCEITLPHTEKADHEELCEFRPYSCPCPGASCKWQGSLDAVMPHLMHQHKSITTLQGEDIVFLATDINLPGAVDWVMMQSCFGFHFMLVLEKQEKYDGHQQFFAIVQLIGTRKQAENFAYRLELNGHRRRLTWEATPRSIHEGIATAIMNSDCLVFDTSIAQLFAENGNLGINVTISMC

Point of comparison: CCN(CC)CCOC(=O)c1ccc(N=CC(C#N)c2nc(-c3cc4ccccc4oc3=O)cs2)cc1 (centres undefined) [2-(diethylamino)ethyl 4-[[(Z)-2-cyano-2-[4-(2-oxochromen-3-yl)-1,3-thiazol-2-yl]ethenyl]amino]benzoate], IC50 11.2 µM. Against it:
- C[N+]1(CCNC(=O)CN=O)CCCCC1 — higher, > 200 µM
- CCOC(=O)C1(C)CC(=Nc2ccc(O)cc2)C(=O)N1c1ccc(O)cc1 (centres undefined) — higher, > 200 µM
- CC1(C)Cc2c(sc(N=CN3CCCCCC3)c2C#N)C(C)(C)N1 — higher, > 200 µM
- COc1cc(NS(=O)(=O)c2ccc(NC(=S)NC(=O)C=Cc3ccc(F)cc3)cc2)ncn1 — higher, > 200 µM
- CN1/C(=C\C=C\C2=[N+](C)c3ccc4ccccc4c3C2(C)C)C(C)(C)c2ccccc21 [1,1,3-trimethyl-2-[(E,3Z)-3-(1,3,3-trimethyl-2-indolylidene)prop-1-enyl]benzo[e]indol-3-ium;perchlorate] — higher, > 200 µM
- CN(Cc1c(C(=O)NN=Cc2ccc(F)cc2)nnn1-c1nonc1N)C1CCCCC1 [1-(4-amino-1,2,5-oxadiazol-3-yl)-5-[[cyclohexyl(methyl)amino]methyl]-N-[(4-fluorophenyl)methylideneamino]triazole-4-carboxamide] — higher, > 200 µM
- Fc1ccc(C=NNC(=S)Nc2cccnc2)cc1F [1-[[3,4-bis(fluoranyl)phenyl]methylideneamino]-3-pyridin-3-yl-thiourea] — higher, > 200 µM
- CCOC(=O)C1=C(C)N=c2sc(=Cc3ccc(OCC(=O)O)cc3)c(=O)n2C1c1ccc(Cl)cc1 (centres undefined) [2-[4-[[5-(4-chlorophenyl)-6-ethoxycarbonyl-7-methyl-3-oxidanylidene-5H-[1,3]thiazolo[3,2-a]pyrimidin-2-ylidene]methyl]phenoxy]ethanoic acid] — higher, > 200 µM
- CCN(CC)c1ccc(C=c2sc3nnc(-c4ccccc4Cl)n3c2=O)cc1 [3-(2-chlorophenyl)-6-[4-(diethylamino)benzylidene][1,3]thiazolo[2,3-c][1,2,4]triazol-5(6H)-one] — higher, > 200 µM
- COC(=O)c1cccc(Cn2c(Cl)c(C=NNC(=O)c3ccccc3Cl)sc2=O)c1 [3-{4-Chloro-5-[(2-chloro-benzoyl)-hydrazonomethyl]-2-oxo-thiazol-3-ylmethyl}-benzoic acid methyl ester] — higher, > 200 µM
- O=C(Nc1ccc(Br)cc1)c1ccc(-n2c(O)c3c(c2O)CC=CC3)cc1 [4-[1,3-bis(oxidanylidene)-3a,4,7,7a-tetrahydroisoindol-2-yl]-N-(4-bromophenyl)benzamide] — 1.7-fold higher, 18.6 µM
- CC(C)(C)c1cc(-c2cs/c(=N\c3ccccc3)n2Cc2ccc(C(=O)O)cc2)cc(C(C)(C)C)c1O [4-[[4-(3,5-ditert-butyl-4-oxidanyl-phenyl)-2-phenylazanyl-1,3-thiazol-3-ium-3-yl]methyl]benzoic acid;bromide] — higher, > 200 µM
- O=C(NN=Cc1cccc(Br)c1)c1ccc(Br)cc1 [4-bromanyl-N-[(3-bromophenyl)methylideneamino]benzamide] — higher, > 200 µM
- COc1ccc(NC2=NC(=O)SC2=Cc2ccc(N(C)C)cc2)cc1 [(5Z)-5-[[4-(dimethylamino)phenyl]methylidene]-4-(4-methoxyanilino)-1,3-thiazol-2-one] — higher, > 200 µM
- CCOC(=O)C(C#N)=c1sc(=C2C=Cc3ccccc3N2CC)c(=O)n1CC [MLS000534135] — higher, > 200 µM
- O=C(NN=Cc1ccc(OC(=O)c2cccs2)cc1)c1cccc(F)c1 [MLS000576933] — higher, > 200 µM
- O=C(O)c1ccc(C=NNC(=O)c2ccc(CN3c4cccc5cccc(c45)S3(=O)=O)cc2)cc1 [MLS001003216] — higher, > 200 µM
- CC[n+]1c(/C=C/N(C)c2ccccc2)sc2ccc(Cl)cc21 [N-[(E)-2-(5-chloro-3-ethyl-1,3-benzothiazol-3-ium-2-yl)ethenyl]-N-methylaniline;perchlorate] — higher, > 200 µM
- CCN(CC)c1ccc(C=NC(C#N)C(=N)C#N)cc1 (centres undefined) [SMR000023871] — higher, > 200 µM
- Cc1ccc(S(=O)(=O)N[N-][C+]2C3CC4CC(C3)CC2C4)cc1[N+](=O)[O-] [SMR000241699] — higher, > 200 µM
- Cc1cc(C)nc(NN=C2C(=O)N(Cc3ccc(Cl)cc3)c3ccccc32)n1 [SMR000248022] — higher, > 200 µM
- C=c1c(C#N)c2[nH]c(N)c(C#N)c(C)c-2c1=Cc1ccc(-c2ccccc2C(=O)O)o1 [SMR000277284] — 1.8-fold higher, 20.6 µM
- CCN(CC)CCOC(=O)c1ccc(N=CC(C#N)c2nc(-c3ccc(OC)c(OC)c3)cs2)cc1 (centres undefined) [SMR000434079] — within 1.5-fold, 12.5 µM
- COC(=O)c1cc(NC(=O)c2ccccc2)c(=O)oc1CC=Nc1ccc(Oc2ccccc2)cc1 [methyl 5-benzamido-6-oxidanylidene-2-[(E)-2-[(4-phenoxyphenyl)amino]ethenyl]pyran-3-carboxylate] — higher, > 200 µM

Same assay, conditions: inactive by the depositor's call

Point of comparison: CCCCNc1c2c3c(cccc3n(C)c1=O)C(=O)c1ccccc1-2 [1-Butylamino-3-methyl-3H-naphtho[1,2,3-de]quinoline-2,7-dione], IC50 23.1 µM. Against it:
- CC1(C)OC(C)(C)C(=CNc2ccc(O)cc2)C1=O [4-[(4-hydroxyanilino)methylene]-2,2,5,5-tetramethyldihydro-3(2H)-furanone] — 2.1-fold higher, 48.2 µM

Molecular target: not listed separately
Test: PubChem AID 1817
Details: not given

Point of comparison: O=C1CCCC(=O)C1=NNc1ccc(C(=O)O)cc1 [SMR000370092], IC50 200 µM. Against it:
- CCN1C(=O)C(=CNc2ccc(N3CCOCC3)cc2)C(=O)N(CC)C1=S — the same, 200 µM

From BindingDB's records for doi:10.7270/Q2QZ28D7 (Burnham Center For Chemical Genomics, 2009)
